Measurements as given in patent US20180092883A1, “PHOSPHATASE INHIBITORS FOR TREATING OCULAR DISEASES” (Aerpio Therapeutics, Inc., priority 2010, published 2018).

Test system: Rhodopsin/VEGF transgenic mice
Assay: Retinal/subretinal neovascularization in rho/VEGF transgenic mice (Study 3; GSA lectin, image analysis)
Format: in vivo, mouse
Conditions: s.c. b.i.d. for 7 days, 3 mg/kg/dose, vs vehicle
Procedure: Thirty (30) Rhodopsin/VEGF transgenic mice having constitutive expression of VEGF in their retinal neurons were divided into three equal groups. At day 14 post natal each group received subcutaneous injections as follows: Group 1 received 10 mg/kg/injection (high dose) of a compound from Table XXI; Group 2 received 3 mg/kg/injection (low dose) of a compound from Table XXI; and Group 3 received injections of vehicle. Each animal received two injections per day for 7 days.
At P21, mice were sacrificed; eyes were harvested and fixed in 10% PBS-buffered formalin for 2 hours at room temperature. […] After 3 washes with PBST, retinas were mounted and imaged by fluorescence microscopy. Areas of retinal neovascularization were assessed using image analysis software (ImagePro Plus 5). […]
Transgenic mice in which the rhodopsin promoter drives expression of VEGF in photoreceptors (rho/VEGF mice) have onset of VEGF expression at P7 and starting at P10 develop sprouts of neovascularization from the deep capillary bed of the retina that grow through the photoreceptor layer and form an extensive network of new vessels in the subretinal space. […] FITC conjugated GSA was used to stain the retinas at room temperature for 2 hours and then the retinas were flat mounted with the photoreceptor side up and examined by fluorescence microscopy. […]

Structure (SMILES): COC(=O)N[C@@H](Cc1ccccc1)C(=O)N[C@@H](Cc1ccc(NS(=O)(=O)O)cc1)c1csc(-c2cccs2)n1 [D91]
- neovascular tufts / new blood vessels in the retina at P21 (micrograph FIG. 3B): marked reduction of neovascular tufts
